Measured values as given in US9084812B2, “Composition useful for the prevention or reduction of the progression of prostate cancer” (SIGMA-TAU INDUSTRIE FARMACEUTICHE RIUNITE S.P.A., priority 2008, dated 2015).
Values joined by “and” are separate entries in the source; they are usually repeats but may differ in a detail not shown here. Identical values can stand only once.

Assays:
PC3 cells = test: MTT colorimetric cell proliferation assay, PC3; type: cell-based, human; parameters: Absorbance 540 nm, single wells (N° 1-8) / Absorbance 540 nm, Mean / PC3 cell proliferation, single wells (N° 1-8) / PC3 cell proliferation, Mean: unit not given here; settings: for % inhib: vs control; for Absorbance 540 nm, single wells (N° 1-8): lycopene 5 mmol/L, selenium 30 ng/ml, zinc 10 μg/ml
Experimental: (§1) For the experiments reported in the following established human prostate carcinoma cell lines LNCaP and PC3 (obtained from the American Type Culture Collection Rockville, Md.) were used. The LNCaP cells were cultured in RPMI 1640 medium (Life Technologies, Rockville, Md.), supplemented with 10% Fetal Bovine Serum (FBS) and 1% Penicillin and Streptomycin. The cells were incubated at 37 degree C. in a humidified atmosphere of 5% CO2 in air. Both sets of cell cultures were grown to 80% confluence in 10 cm tissue culture flasks and split 1:8. The cells were plated in 96 cell plates and allowed to attach and reach 60-70% confluence before being used for experimentation. […] Cells that were used as control were incubated with same amount of PBS in complete cell medium. The effects of lycopene (5 mmol/L], selenium (30 ng/ml), zinc (10 μg/ml), serenoa (10 μg/ml), and soya isoflavon (10 μg/ml) were also tested by adding them to the cell culture alone or in combination with the green tea extract and pomegranate extract. The cellular proliferation of the cells was determined using the 3-(4,5-dimethylthiazol-2-yl)-2,5-diphenyltetrazolium (MIT) colorimetric assay following 24 hours of incubation at 37° C. with or without the test agents. The MTT ([…]) was added to all the wells and incubated for a further 2 hr. The plate was than centrifuged at 500×g for 5 min at 4 degree C. The MIT solution was removed from the wells by careful aspiration and buffered DMSO (0.1 ml) was added to each of the wells and plates shaken for 15 mins. The absorbance was measured on a microplate reader at the wavelength of 540 nm. The effect of each compound alone and in combination on cell growth was assessed as the percentage of cell viability in which the untreated control cells were taken as those being completely viable and allowed to grow freely.

LNCaP cells = test: MTT colorimetric cell proliferation assay, LNCaP; type: cell-based, human; parameters: Absorbance 540 nm, single wells (N° 1-10) / Absorbance 540 nm, Mean / LNCaP cell proliferation, Mean: unit not given here; settings: for % inhib: vs control
Experimental: as §1

[1] = Table 2, 24 hours incubation, green tea 40 μg/ml, pomegranate 40 μg/ml
[2] = Table 2, 24 hours incubation, mean of 8 wells
[3] = Table 1, 24 hours incubation, mean of 10 wells

## C[N+](C)(C)C[C@H](O)CC(=O)[O-] [H, L-carnitine]
PC3 cells; Table 4, 24 hours incubation, green tea 40 μg/ml, pomegranate 40 μg/ml, serenoa 10 μg/ml, soya isoflavon 10 μg/ml, L-carnitine
  PC3 cell proliferation, single wells (N° 1-8): 366 and 341 and 387 and 320 and 378 and 392 and 385
PC3 cells; Table 4, 24 hours incubation, mean of 8 wells
  PC3 cell proliferation, Mean: 369
PC3 cells; Table 4, 24 hours incubation
  % inhib: 2.6%
LNCaP cells; Table 3, 24 hours incubation, mean of 10 wells
  LNCaP cell proliferation, Mean: 347
LNCaP cells; Table 3, 24 hours incubation
  % inhib: 3.3%

## [Se] [D, selenium]
PC3 cells; [1]
  Absorbance 540 nm, single wells (N° 1-8): 309 and 341 and 345 and 286 and 292 and 313 and 321 and 374
PC3 cells; [2]
  Absorbance 540 nm, Mean: 323
PC3 cells; Table 2, 24 hours incubation
  % inhib: 12.7%
LNCaP cells; [3]
  Absorbance 540 nm, Mean: 311
LNCaP cells; Table 1, 24 hours incubation
  % inhib: 9.8%

## CC(C)=CCC/C(C)=C/C=C/C(C)=C/C=C/C(C)=C/C=C/C=C(C)/C=C/C=C(C)/C=C/C=C(\C)CCC=C(C)C [C, lycopene]
PC3 cells; [1]
  Absorbance 540 nm, single wells (N° 1-8): 377 and 314 and 322 and 309 and 299 and 316 and 382 and 308
PC3 cells; [2]
  Absorbance 540 nm, Mean: 328
PC3 cells; Table 2, 24 hours incubation
  % inhib: 11.4%
LNCaP cells; Table 1, 24 hours incubation, green tea 40 μg/ml, pomegranate 40 μg/ml, lycopene 5 mmol/L, selenium 30 ng/ml, zinc 10 μg/ml
  Absorbance 540 nm, single wells (N° 1-10): 312 and 317 and 301 and 329 and 315 and 327 and 353 and 341
LNCaP cells; [3]
  Absorbance 540 nm, Mean: 324
LNCaP cells; Table 1, 24 hours incubation
  % inhib: 6.4%

## [Zn] [E, zinc]
PC3 cells; [1]
  Absorbance 540 nm, single wells (N° 1-8): 355 and 322 and 395 and 344 and 312 and 321 and 339
PC3 cells; [2]
  Absorbance 540 nm, Mean: 342
PC3 cells; Table 2, 24 hours incubation
  % inhib: 7.8%
LNCaP cells; [3]
  Absorbance 540 nm, Mean: 325
LNCaP cells; Table 1, 24 hours incubation
  % inhib: 5.7%
